# Results: publication PMC7581722, “Tolerogenic Immunomodulation by PEGylated Antigenic Peptides” (Frontiers in Immunology, 2020)
# Tests used:
# OVA-TCR+ CD4+ T cells [1] = experiment: Analysis of bioavailability: vaccination 3 days before transfer of CFSE-labeled OVA-specific CD4+ cells; parameters: species or system BALB/c mice; conditions: mouse, in vivo, iv
# Experimental: To test for the presence of bioactive material in the organism after an extended period of time (bioavailability), recipients were treated with pOVA or equimolar amounts of PEGylated peptides 3 days before transfer of CFSE-labeled OVA-specific CD4^+ cells. Proliferation was assessed 6 days after CD4^+ T cell transfer by dilution of CFSE intensity using flow cytometry.
# We next addressed the question whether PEGylation leads to an extended half-life (bioavailability) of the antigenic peptide in the organism and whether size and structure of the PEG molecule matter. For this, we tested the degree of proliferation after vaccination with a single i.v. injection of pOVA or conjugates at 3 days prior to transfer of OVA-specific T cells ( Figure 3A ). Six days after cell transfer, splenocytes were isolated and proliferation of OVA-TCR^+ CD4^+ T cells was analyzed according to CFSE content.
# Figure 3 Conjugation of pOVA to the macromolecular carrier PEG extends peptide bioavailability. (A) Set-up for analysis of the bioavailability. (B) OVA-specific CD4^+ CFSE-labeled T cells were transferred into BALB/c mice three days after i.v. peptide vaccination with unconjugated pOVA or equimolar amounts of pOVA-PEG conjugates. After 6 days proliferation was assessed by flow cytometry. Cells from spleen and pLN were gated on OVA-TCR^+ CD4^+ T cells. […]
# [2] = tested on: Foxp3+ regulatory T cells among OVA-TCR+ CD4+ T cells; experiment: Adoptive transfer: Foxp3 expression of OVA-TCR+ CD4+ splenocytes after vaccination; assay type: in vivo, BALB/c mice
# Experimental: Cell fixation, permeabilization, and intracellular Foxp3 staining were performed using the eFluor450 anti-mouse Foxp3 (eBioscience) staining set according to manufacturer’s instructions.
# On day 0, 5 × 10^6 CFSE-labeled CD4^+ cells from DO11.10 were adoptively transferred intravenously (i.v.) into syngeneic BALB/c mice. After 24 hours, mice were treated by a single i.v. injection of PBS (control), unconjugated pOVA or equimolar amounts of PEG-conjugated pOVA as indicated. […] On day 7, splenocytes were isolated, and OVA-TCR^+ CD4^+ T cells were identified by an anti-KJ1.26 antibody, recognizing the OVA-specific TCR on transferred DO11.10 cells.
# To assess the immunomodulatory effect of administration of different types of PEGylated pOVA, we analyzed the expression of Foxp3, the master transcription factor of Tregs and the cytokine profile of antigen-specific T cells upon vaccination.
# CFSE-labeled CD4^+ cells from DO11.10 mice were transferred into BALB/c mice. After 24 h, mice received either PBS (control), indicated doses of pOVA or equimolar amounts of PEGylated peptides. After 6 days, Foxp3 expression was assessed using flow cytometry. Spleen cells were gated on OVA-TCR^+ CD4^+ T cells. (A) Representative FACS dot plots of Foxp3 expression following tolerization with pOVA or pOVA-PEG conjugates at a dose of 5 µg (based on peptide amount). (B) Dose response curve in vivo. […]
# [3] = tested on: TNF-producing OVA-TCR+ CD4+ T cells; assay type: in vivo
# [4] = tested on: Foxp3+ Tregs among OVA-TCR+ CD4+ cells; experiment: Adoptive transfer of Treg-depleted CD4+ cells: de novo induction of Foxp3+ Tregs; assay type: in vivo, BALB/c mice; conditions: 5 µg i.v. or equimolar, 6 days; spleen, pLN, mLN, livLN; n = 3-7
# Experimental: To investigate whether Tregs are expanded or induced de novo, purified CFSE-labeled CD4^+ CD25^- CD103^- T cells from DO11.10 mice were adoptively transferred i.v. into BALB/c mice. After 24 h, mice were treated by a single i.v. injection of PBS (control), unconjugated pOVA at a dose of 5 µg per mouse or equimolar amounts of PEGylated pOVA. On day 7, different lymphatic organs were isolated and OVA-specific CD4^+ T cells were identified by an anti-KJ1.26 antibody.
# To investigate whether the increase of Treg frequency following pOVA-PEG20 treatment is due to de novo induction or to expansion of pre-existing Tregs, we transferred Treg-depleted OVA-specific CD4^+ T cells prior to vaccination with pOVA or pOVA-PEG20. […] The frequency of Foxp3^+ Tregs reached similar levels following pOVA and pOVA-PEG20 administration in both spleen and pLN, whereas pOVA-PEG20 increased the Treg frequency in mLN (trend) and the livLN (significant) compared to pOVA.
# Figure 5 Administration of pOVA-PEG20 leads to de novo induction of Foxp3^+ Tregs. Treg-depleted CD4^+ T cells from DO11.10 mice were transferred into BALB/c mice 24 h prior to treatment with PBS (control), 5 µg of pOVA or equimolar amounts of pOVA-PEG20. Six days post peptide vaccination, spleen, pLN, mLN and livLN were isolated and Foxp3 expression was analyzed using flow cytometry. […]
# OVA-TCR+ CD4+ T cells [5] = experiment: Frequency of OVA-TCR+ CD4+ cells among total CD4+ splenocytes (deletion); assay type: in vivo, BALB/c mice; conditions: 5 µg i.v. or equimolar, day 6; compared to PBS (PEG20 also to pOVA); n = 5-11
# Experimental: (§1) On day 0, 5 × 10^6 CFSE-labeled CD4^+ cells from DO11.10 were adoptively transferred intravenously (i.v.) into syngeneic BALB/c mice. After 24 hours, mice were treated by a single i.v. injection of PBS (control), unconjugated pOVA or equimolar amounts of PEG-conjugated pOVA as indicated. In some experiments, mice were also treated with unconjugated pOVA + 50 µg of lipopolysaccharide (LPS) or pOVA-PEG + 50 µg of LPS. On day 7, splenocytes were isolated, and OVA-TCR^+ CD4^+ T cells were identified by an anti-KJ1.26 antibody, recognizing the OVA-specific TCR on transferred DO11.10 cells.
# Besides Treg expansion/induction and anergy, deletion of antigen-specific T effector cells by activation-induced cell death also dampens the immune response. […] Thus, vaccination with this conjugate is more efficient in triggering activation-induced death compared to native peptide or pOVA-PEG-tetramer vaccination where some death might outbalance induced proliferation.
# Figure 8 Administration of pOVA-PEG20 reduces the frequency of OVA-TCR^+ CD4^+ T cells among total CD4^+ splenocytes. OVA-specific CD4^+ cells were transferred into BALB/c mice. After 24 h, mice received i.v. PBS (control), 5 µg of pOVA or equimolar amounts of pOVA-PEG conjugates. After 6 days, the frequency of OVA-TCR^+ CD4^+ cells among total CD4^+ T cells was assessed using flow cytometry. […]
# OVA-specific Th1 cells = experiment: Adoptive transfer of in vitro generated antigen-specific Th1 cells; assay type: in vivo; conditions: 5 µg i.v. or equimolar, 24 h after Th1 transfer, CFSE, n = 6
# Experimental: CD4^+ T cells were isolated from DO11.10 mice via MACS-sorting as above and co-cultured 1:3 with APCs (CD4^- CD90^-) (final concentration: 2 x 10^6 cells/ml). Cells were incubated with 1 µg/ml of pOVA, IFN-γ (20 ng/ml) (R&D Systems, McKinley, USA), IL12 (5 ng/ml) (R&D), and anti-IL4-antibody (11B11, produced in house) (5 µg/ml). After 6 days, cells were harvested, and IFN-γ expression was assessed via flow cytometry.
# 5 × 10^6 purified polarized CFSE-labeled Th1 cells from DO11.10 mice were adoptively transferred i.v. into BALB/c mice. After 24 h, mice were treated by a single i.v. injection of PBS (control), unconjugated pOVA at a dose of 5 µg per mouse or equimolar amounts of PEGylated pOVA. On day 5, splenocytes were isolated, and OVA-specific Th1 cells were identified by an anti-KJ1.26 antibody.
# To analyze these questions, in vitro generated OVA-specific Th1 effector cells ( Supplementary Figure 5 ) were transferred into BALB/c mice prior to peptide vaccination. Proliferation and expression of IFN-γ and Foxp3 were assessed on day 5.
# Figure 9 pOVA-PEG20 vaccination in presence of pre-existing T effector cells. […] After four days, splenocytes were re-isolated and proliferation, IFN-γ and TNF production as well as Foxp3 expression was assessed using flow cytometry. […] (E, F) Absolute number of antigen-specific IFNγ or Foxp3^+ cells expressed as % of total CD4^+. […]
# OVA-TCR+ CD4+ cells = experiment: Adoptive transfer with additional LPS (inflammatory conditions); assay type: in vivo, BALB/c mice; conditions: 5 µg i.v. or equimolar + 50 µg LPS, 6 days
# Experimental: as §1
# To investigate the impact of inflammatory conditions, we analyzed the effect of lipopolysaccharide (LPS) application on the response of transferred unmanipulated OVA-TCR^+ CD4^+ cells.
# 24 h after adoptive transfer of OVA-specific CD4^+ T cells, recipients received i.v. PBS (control), 5 µg of pOVA or equimolar amounts of pOVA-PEG conjugates with or without additional LPS. After 6 days, splenocytes were isolated and Foxp3 expression as well as TNF production was assessed by flow cytometry. (A) % TNF^+ cells gated on OVA-specific CD4^+ cells, mean ± SD of data from three independent experiments. (B) % KJ1.26^+ (OVA-specific) splenocytes among total CD4^+ population; mean ± SD of pooled data from three independent experiments. […]
# [6] = tested on: Th1-driven DTH footpad swelling; experiment: Delayed-type hypersensitivity (DTH) model, footpad swelling; assay type: in vivo, BALB/c mice; conditions: 5 µg i.v. or equimolar; Th1 transfer day 7; footpad challenge pOVA/IFA; 8 days; n = 15
# Experimental: pOVA-specific CD4^+ cells were adoptively transferred into BALB/c mice, which were treated i.v. with PBS (control), 5 μg of pOVA or equimolar amounts of pOVA-PEG20 24 h later (tolerization). To induce the effector phase, in vitro generated pOVA-specific Th1 cells were transferred into the recipients on day 7. After 24 h, pOVA in IFA or PBS/IFA were injected into the left or right hind footpad, respectively. Footpad swelling was monitored for 8 consecutive days and expressed as Δ footpad thickness.
# To investigate whether pOVA-PEG20 is able to prevent the development of an inflammatory reaction in vivo, we used a DTH model based on the transfer of pre-formed Th1 cells, intra-footpad challenge with pOVA and measurement of footpad swelling for 8 days. […] As discussed below, a clearer superiority of PEGylated peptide over native peptide in tolerance induction was found in a more physiological EAE-model studied in parallel ([35]).
# OVA-specific CD4^+ cells were adoptively transferred into BALB/c mice, which were treated i.v. with PBS (control), 5 μg of pOVA or equimolar amounts of pOVA-PEG20 24 h later. On day 7, in vitro generated OVA-specific Th1 cells were transferred into the recipients. […] The difference in footpad thickness after challenge was monitored for eight consecutive days. […]
sequence,measurement,setting,value
ISQAVHAAHAEINEAGR [pOVA],T cell proliferation when vaccinated 3 days prior to T cell transfer (bioavailability),OVA-TCR+ CD4+ T cells [1],Little T cell proliferation
same,"Foxp3+ among OVA-TCR+ CD4+ splenocytes, representative FACS dot plot (Fig. 4A gate number)","[2]; 5 µg i.v. (based on peptide amount), 6 days after treatment, single representative plot",24.7%
same,Frequency of splenic OVA-specific Foxp3+ regulatory T cells (in words),"[2]; 5 µg i.v. or equimolar, pOVA, PEG40, tetramer compared to PBS, PEG20 compared to pOVA",significant increase
same,Mean ratio % TNF+/% Foxp3+ cells (effector cell/Treg ratio),"[3]; 5 µg i.v. or equimolar, 6 days, spleen, gated on OVA-TCR+ CD4+ cells, n = 5-8",2.23
same,"IL-10 staining of OVA-specific cells after restimulation, representative plot gate number (Suppl. Fig. 3)","[3]; 5 µg in vivo (based on peptide amount), day 7, lower pair of plots",0.58
same,De novo induction of Foxp3+ Tregs from Treg-depleted CD4+ cells,[4],able to induce Foxp3^+ Tregs in all organs analyzed
same,Frequency of OVA-specific (OVA-TCR+ CD4+) cells among host CD4+ splenocytes,OVA-TCR+ CD4+ T cells [5],not reducing
same,Proliferative response of transferred Th1 cells,OVA-specific Th1 cells,moderate proliferative response
same,Increase in Foxp3+ cells upon vaccination in presence of LPS,OVA-TCR+ CD4+ cells,completely suppressed
same,Tolerance in Th1-driven DTH model (Δ footpad thickness),[6],partial tolerance
